US8450522B2, “Conformationally constrained carboxylic acid derivatives useful for treating metabolic disorders” (Amgen Inc., priority 2008, dated 2013)
Entries after “also recorded” stand apart in the source; their conditions may differ.

Columns and labels:
GPR40 [1] = molecular target: T1, GPR40 (Homo sapiens, UniProt O14842); assay: Cell-based aequorin assay (CHO cells stably transfected with GPR40 and aequorin); design: expressed in transfected cells; settings: activation of human GPR40, CHO cells, 0.01% HSA
Protocol: Briefly, the Aequorin assays were performed on doubly stable CHO cells expressing GPR40 and Aequorin DNA. […] The luminescence was recorded over a period of 20 seconds with a Microlumat luminometer (Berthold).
Cell-based aequorin assays were employed to characterize the modulatory activity of compounds on the GPR40 signaling pathway. In an exemplary assay, CHO cells were stably transfected with both GPR40 and Aequorin (Euroscreen). Cells were detached from the tissue culture dish with 2 mL of trypsin (0.25% (w/v)). Trypsinization was halted with 28 mL of Hanks Buffered Salt Solution containing 20 mM Hepes (H/HBSS) and 0.01% fatty acid-free human serum albumin (HSA). Coelantrazine is added to 1 ug/mL, and the cells were incubated for 2 hours at room temperature. Compounds were dissolved in DMSO for preparation of 10 mM stock solutions. Compounds were diluted in H/HBSS containing 0.01% HSA. Serial dilutions of the test compounds were prepared to determine dose response.
Aequorin luminescence measurements were made using an EG&G Berthold 96-well luminometer, and the response was measured over a 20 second interval after cells and compounds were mixed. The maximum relative light units was plotted to determine dose response. The EC50 (effective concentration to reach 50% maximal response) was determined from the dose response plot.

GPR40 [2] = molecular target: T1, GPR40; assay: Competition binding assay on A9 membranes expressing GPR40; design: expressed in transfected cells; host or cells: membranes of A9 cells expressing GPR40; settings: 5 nM [3H] labeled Comparative Compound 1, 4 hours at room temperature
Protocol: Competition binding assays were performed on A9 membranes expressing GPR40.

GPR40 [3] = molecular target: T1, GPR40; assay: Inositol phosphate accumulation assay (A9 cell line stably transfected with GPR40); assay type: cell-based; design: expressed in transfected cells; settings: human GPR40, A9_GPR40 cells, 1 hour at 37° C.; read-out: IP3 EC50 (inositol phosphate assay data)
Protocol: An A9 cell line stably transfected with GPR40 (A9_GPR40) was used in IP accumulation assays. A9_GPR40 cells were plated in 96-well plates containing 20,000 cells/well in DMEM containing 10% FBS. After the cells attached to the well surface, the media was replaced with inositol free DMEM containing 10% dialyzed FBS and 1 μCi, mL ^3H-inositol and incubated for 16 hours. Compounds were diluted in HBSS/10 mM LiCl containing a desired amount of HSA and added directly to cells. Following 1 hour incubation at 37° C., the media was replaced with 100 μl of 20 mM formic acid to quench the reaction. 50 μL of the extract was then added to 100 μL of SPA beads, incubated overnight, and measured on a TopCount the following day.

T1 sequence (O14842 whole entry): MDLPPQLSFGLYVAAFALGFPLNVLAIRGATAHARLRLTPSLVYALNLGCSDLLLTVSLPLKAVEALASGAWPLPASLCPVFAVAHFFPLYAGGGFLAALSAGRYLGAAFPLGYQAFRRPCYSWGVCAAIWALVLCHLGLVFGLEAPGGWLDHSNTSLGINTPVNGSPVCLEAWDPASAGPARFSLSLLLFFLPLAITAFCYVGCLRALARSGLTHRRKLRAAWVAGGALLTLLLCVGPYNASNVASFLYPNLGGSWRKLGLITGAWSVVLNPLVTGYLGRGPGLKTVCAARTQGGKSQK

COc1ccc(F)c(-c2ccc(COc3ccc4c(c3)[C@@H](CC(=O)O)CC4)cc2C(C)(C)C)c1 (single isomer, unassigned) [Example 1, ((1R)-6-(((2-(1,1-Dimethylethyl)-2′-fluoro-5′-(methyloxy)-1,1′-biphenyl-4-yl)methyl)oxy)-2,3-dihydro-1H-inden-1-yl)acetic acid or ((1S)-6-(((2-(1,1-Dimethylethyl)-2′-fluoro-5′-(methyloxy)-1,1′-biphenyl-4-yl)methyl)oxy)-2,3-dihydro-1H-inden-1-yl)acetic acid]
EC50 (GPR40 [1]): 1000 to 10000 nM
displacement of 3H-labeled Comparative Compound 1 (GPR40 [2]): did not displace
effect on binding of the radioligand (3H-labeled Comparative Compound 1) to the receptor (GPR40 [2]): enhanced the total binding; also recorded: enhanced the binding of the radioligand

CC[C@]1(CC(=O)O)CCc2ccc(OCc3ccc(-c4cc(OC)ncc4F)c([C@H]4CCCC4(C)C)c3)cc21 (single isomer, unassigned) [Example 43]
EC50 (GPR40 [3]): 10 to 100 nM
EC50 (GPR40 [1]): 100 to 1000 nM

CC[C@]1(CC(=O)O)CCc2ccc(OCc3ccc(-c4cc(OC)ccc4F)c([C@@H](OC)C(C)(C)C)c3)cc21 (single isomer, unassigned) [Example 44]
EC50 (GPR40 [3]): 10 to 100 nM
EC50 (GPR40 [1]): 100 to 1000 nM

CC[C@]1(CC(=O)O)CCc2ccc(OCc3ccc(-c4cc(OC)ccc4F)c([C@@H](OC)C(C)(C)C)c3)cc21 (single isomer, unassigned) [Example 45]
EC50 (GPR40 [3]): 100 to 1000 nM
EC50 (GPR40 [1]): 100 to 1000 nM

COc1cc(-c2ccc(COc3ccc4c(c3)[C@@H](CC(=O)O)CCC4)cc2[C@H]2CCCC2(C)C)c(F)cn1 (single isomer, unassigned) [Example 46]
EC50 (GPR40 [3]): 10 to 100 nM
EC50 (GPR40 [1]): 100 to 1000 nM

COc1cc(-c2ccc(COc3ccc4c(c3)[C@@](C)(CC(=O)O)CCC4)cc2[C@H]2CCCC2(C)C)c(F)cn1 (single isomer, unassigned) [Example 48]
EC50 (GPR40 [3]): 10 to 100 nM
EC50 (GPR40 [1]): 100 to 1000 nM

COc1ccc(F)c(-c2ccc(COc3ccc4c(c3)[C@H]([C@@H](C)C(=O)O)CC4)cc2C2=CCCC2(C)C)c1 [Example 14]
EC50 (GPR40 [3]): 10 to 100 nM
EC50 (GPR40 [1]): 100 to 1000 nM

COc1ccc(F)c(-c2ccc(COc3ccc4c(c3)[C@H]([C@@H](C)C(=O)O)CC4)cc2[C@H]2CCCC2(C)C)c1 [Example 15]
EC50 (GPR40 [3]): 10 to 100 nM
EC50 (GPR40 [1]): 100 to 1000 nM

COc1cc(-c2ccc(COc3ccc4c(c3F)C(C)(CC(=O)O)CC4)cc2C2CCCC2(C)C)c(F)cn1 [Example 40, {(S)-6-[3-((S)-2,2-Dimethyl-cyclopentyl)-4-(5-fluoro-2-methoxy-pyridin-4-yl)-benzyloxy]-7-fluoro-1-methyl-indan-1-yl}-acetic acid or stereoisomer thereof]
EC50 (GPR40 [3]): 100 to 1000 nM
EC50 (GPR40 [1]): 100 to 1000 nM
